Laboratory results published in patent US8658660B2, “5-fluoro-4-imino-3,4-dihydropyrimidin-2-(1H)-ones derivatives” (Dow AgroSciences, LLC., priority 2011, dated 2014).

How the values were obtained:
[1] = system: Mycosphaerella graminicola; anamorph: Septoria tritici (SEPTTR); assay: Evaluation of fungicidal activity: leaf blotch of wheat (SEPTTR); format: in vivo, Septoria tritici on wheat plants (variety Yuma); settings: wheat plants, percent control vs untreated inoculated plants
Procedure: Evaluation of Fungicidal Activity: Leaf Blotch of Wheat (Mycosphaerella graminicola; anamorph: Septoria tritici; Bayer code […]) Wheat plants (variety Yuma) were grown from seed in a greenhouse in 50% mineral soil/50% soil-less Metro mix until the first leaf was fully emerged, with 7-10 seedlings per pot. These plants were inoculated with an aqueous spore suspension of Septoria tritici either prior to or after fungicide treatments. After inoculation the plants were kept in 100% relative humidity (one day in a dark dew chamber followed by two to three days in a lighted dew chamber) to permit spores to germinate and infect the leaf. The plants were then transferred to a greenhouse for disease to develop. The following table presents the activity of typical compounds of the present disclosure when evaluated in these experiments. The effectiveness of the test compounds in controlling disease was determined by assessing the severity of disease on treated plants, then converting the severity to percent control based on the level of disease on untreated, inoculated plants.

[2] = system: Venturia inaequalis (VENTIN); assay: Evaluation of fungicidal activity: apple scab (VENTIN); format: in vivo; settings: apple seedlings, percent control vs untreated inoculated plants
Procedure: Evaluation of Fungicidal Activity: Apple Scab (Venturia inaequalis; Bayer code […]) Apple seedlings (McIntosh or Golden Delicious) were grown in Metro mix and inoculated with a spore suspension containing 5×10^5 spore/ml. Plants were placed in a dew room for 24 hours with 100% relative humidity and then transferred to a greenhouse with a temperature of 18° C. for disease to develop. The following table presents the activity of typical compounds of the present disclosure when evaluated in these experiments. The effectiveness of the test compounds in controlling disease was determined by assessing the severity of disease on treated plants, then converting the severity to percent control based on the level of disease on untreated, inoculated plants.

Row | Structure (SMILES) | SEPTTR 100 PPM 1DP (One-Day Protectant activity, % disease control rating) [1] | SEPTTR 100 PPM 3DC (Three-Day Curative activity, % disease control rating) [1] | VENTIN 100 PPM 1DP (One-Day Protectant activity, % disease control rating) [2]
1 | [2H]C([2H])([2H])n1c(=O)[nH]cc(F)c1=N [Cmpd 3, 5-fluoro-4-imino-3-(trideuteriomethyl)-1H-pyrimidin-2-one] | D (0-25) | D (0-25) | –
2 | N=c1c(F)c[nH]c(=O)n1Cc1cccs1 [Cmpd 2, 5-fluoro-4-imino-3-(thiophen-2-ylmethyl)-3,4-dihydropyrimidin-2(1H)-one] | B (51-75) | A (76-100) | –
3 | Cn1c(=O)[nH]cc(F)c1=N [Cmpd 1, 5-fluoro-4-imino-3-methyl-3,4-dihydropyrimidin-2(1H)-one] | A (76-100) | A (76-100) | B (51-75)
